According to patent US5601801A, “Radiolabelled angiotensin converting enzyme inhibitors” (Merck Frosst Canada, Inc., priority 1994, dated 1997):
Like-named read-outs stand apart in the source and are kept apart here.

Molecular target: T1, angiotensin converting enzyme (ACE) (Oryctolagus cuniculus, UniProt P12822)
T1 construct: a slurry of 10 g of lyophilized rabbit lung powder (Pel-Freez); tissue Pel-Freez; host or cells: rabbit lung (lyophilized powder, buffer extract)
T1 sequence (P12822 34-1310): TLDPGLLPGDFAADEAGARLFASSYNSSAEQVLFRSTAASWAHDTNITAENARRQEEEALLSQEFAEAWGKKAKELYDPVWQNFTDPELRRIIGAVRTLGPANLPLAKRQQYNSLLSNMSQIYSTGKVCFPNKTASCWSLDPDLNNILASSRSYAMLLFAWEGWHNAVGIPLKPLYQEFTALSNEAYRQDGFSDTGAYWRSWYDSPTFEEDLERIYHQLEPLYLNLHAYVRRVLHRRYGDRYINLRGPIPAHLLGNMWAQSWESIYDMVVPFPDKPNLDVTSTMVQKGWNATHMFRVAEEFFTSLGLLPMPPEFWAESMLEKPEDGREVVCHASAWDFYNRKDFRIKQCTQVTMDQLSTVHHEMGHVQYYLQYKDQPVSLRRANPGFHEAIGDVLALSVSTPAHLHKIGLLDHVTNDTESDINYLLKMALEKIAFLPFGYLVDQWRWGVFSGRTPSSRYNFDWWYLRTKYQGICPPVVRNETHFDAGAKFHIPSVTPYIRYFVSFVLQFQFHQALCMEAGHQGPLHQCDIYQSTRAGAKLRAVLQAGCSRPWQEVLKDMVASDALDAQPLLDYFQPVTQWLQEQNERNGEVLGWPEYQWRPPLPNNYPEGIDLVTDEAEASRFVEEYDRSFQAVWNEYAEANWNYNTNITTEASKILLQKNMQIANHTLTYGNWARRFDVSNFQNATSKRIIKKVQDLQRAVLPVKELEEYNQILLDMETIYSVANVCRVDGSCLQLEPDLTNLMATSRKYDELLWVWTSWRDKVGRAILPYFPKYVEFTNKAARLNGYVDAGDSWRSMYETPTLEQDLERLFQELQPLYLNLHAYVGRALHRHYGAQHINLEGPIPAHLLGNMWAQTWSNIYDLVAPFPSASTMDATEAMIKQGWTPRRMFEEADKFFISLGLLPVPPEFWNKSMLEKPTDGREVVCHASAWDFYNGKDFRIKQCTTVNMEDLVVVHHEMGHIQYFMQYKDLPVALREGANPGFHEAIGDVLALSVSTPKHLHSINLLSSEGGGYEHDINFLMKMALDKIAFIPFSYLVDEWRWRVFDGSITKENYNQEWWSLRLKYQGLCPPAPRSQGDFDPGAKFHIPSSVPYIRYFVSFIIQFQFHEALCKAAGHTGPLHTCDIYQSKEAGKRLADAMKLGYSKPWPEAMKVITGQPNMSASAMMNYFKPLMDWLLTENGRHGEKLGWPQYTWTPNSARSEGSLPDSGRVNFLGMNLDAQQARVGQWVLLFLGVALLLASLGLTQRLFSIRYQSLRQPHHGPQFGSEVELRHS
Assay: IC50 Assay (Cushman and Cheung; hippuryl-L-histidyl-L-leucine hydrolysis by rabbit lung powder extract)
Assay type: biochemical
Experimental: According to the assay of Cushman and Cheung Biochem. Pharmacol 20, 1637, (1971), a slurry of 10 g of lyophilized rabbit lung powder (Pel-Freez) and 100 mL of 50 mM potassium phosphate buffer, pH 8.3, was blended for three one minute intervals followed by centrifugation for 40 minutes at 17,500 rpm. The clear supernatant was assayed for protein by the modified Lowry test and the volume of the rabbit lung powder extract (RLPE) was adjusted with buffer, 100 mM phosphate buffer prepared to yield a pH of 8.3 in the presence of 300 mM NaCl, to give 10-20 mU of angiotensin converting enzyme (ACE) activity in a 100 μL volume. The assay was carried out in 13×100 mm disposable culture tubes, with each assay tube containing 100 μL RLPE, 50 μL of a 12.5 mM solution of hippuryl-L-histidyl-L-leucine (HHL) (Sigma) in a buffer and 100 μL of inhibitor solution made up in buffer. The enzyme is added last to initiate the reaction and the tubes are incubated at 37° C. for one hour. The assay is terminated by the addition of 250 μL of 1M HCl to each tube; the HCl is added before the enzyme in the zero-time control assays. To each tube is added 1.5 mL of ethyl acetate followed by vortex mixing for 15 seconds. After the tubes have been centrifuged at 2,500 rpm for 5 minutes, 1 mL of the ethyl acetate layer is transferred to a clean 12×75 mm disposable culture tube. The ethyl acetate was evaporated by heating at 90° C. in a water bath for 30 minutes. Addition of 1 mL of water to each tube followed by vortex mixing for 15 seconds redissolves the hippuric acid. […]

A228 ± SD (-log[MIBA] 7.246)	A228 ± SD (-log[MIBA] 8.246)	A228 ± SD (-log[MIBA] 9.246)	A228 ± SD (-log[MIBA] 10.246)	A228 ± SD (-log[MIBA] 11.246)	IC50 (rabbit lung ACE, HHL substrate, pH 8.3, 37° C., one hour, read-out: IC50) [nM]	Compound	IC50 [nM]	A228 ± SD (-log[Lisin] 6.206)	A228 ± SD (-log[Lisin] 7.206)	A228 ± SD (-log[Lisin] 8.206)	A228 ± SD (-log[Lisin] 9.206)	A228 ± SD (-log[Lisin] 10.206)
0.025 ± 0.007	0.224 ± 0.016	1.196 ± 0.026	2.174 ± 0.047	2.360 ± 0.060	0.6	O=C(NCCCC[C@H](N[C@@H](CCc1ccccc1)C(=O)O)C(=O)N1CCC[C@H]1C(=O)O)c1cccc(I)c1 [lisinopril MIBA]	–	–	–	–	–	–
–	–	–	–	–	–	NCCCC[C@H](N[C@@H](CCc1ccccc1)C(=O)O)C(=O)N1CCC[C@H]1C(=O)O [lisinopril, reference compound]	5.4	0.029 ± 0.007	0.175 ± 0.007	0.946 ± 0.012	2.275 ± 0.031	2.371 ± 0.060
